Measurements: ChEMBL document CHEMBL1201862, “PubChem BioAssay data set” (2004)
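96-well plates; 48 h exposure; 5 concentrations. Endpoints by linear interpolation between flanking doses. Not reached: highest tested concentration assigned. GI50 = concentration required for 50% inhibition of growth.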 The source made the active and inactive calls. Cut-off read from the data, not from the text of the source: active = GI50 up to about 1.1 µM and inactive = higher.

What was measured:
Test in all cases: NCI anticancer screen, dose series, 48 h
A549 = test system: A549
SF-539 = test system: SF-539
UO-31 = test system: UO-31
SK-MEL-5 = test system: SK-MEL-5
SN12C = test system: SN12C
SK-MEL-28 = test system: SK-MEL-28
HT-29 = test system: HT-29
HOP-92 = test system: HOP-92
OVCAR-4 = test system: OVCAR-4
CAKI-1 = test system: CAKI-1
MOLT-4 = test system: MOLT-4
HCT-116 = test system: HCT-116
M14 = test system: M14
KM12 = test system: KM12
SK-MEL-2 = test system: SK-MEL-2

Measured: GI50

O=C(/C=C/c1ccccc1Cl)c1ccccc1Cl
inactive: A549 30 µM | SF-539 17.6 µM | UO-31 15.9 µM | SK-MEL-5 31.6 µM | SN12C 20.6 µM | SK-MEL-28 19.1 µM | HT-29 18.8 µM | HOP-92 17.1 µM | OVCAR-4 20.7 µM | CAKI-1 17.6 µM | MOLT-4 23.8 µM | HCT-116 14.6 µM | M14 22.3 µM | KM12 15.5 µM

N#CC1C(C#N)C2(c3ccccc3)C(c3ccccc3)=NN(c3ccccc3)CC12 (stereo unspecified)
inactive: A549 > 100 µM | SF-539 > 100 µM | UO-31 > 100 µM | SK-MEL-5 > 100 µM | SN12C > 100 µM | SK-MEL-28 > 100 µM | OVCAR-4 95.3 µM | CAKI-1 > 100 µM | MOLT-4 16.8 µM | HCT-116 > 100 µM | M14 > 100 µM | KM12 > 100 µM | SK-MEL-2 > 100 µM

CC1=C(C(=O)Nc2ccccc2)C(c2cc(Cl)cc(Cl)c2)C(C(=O)Nc2ccccc2)=C(C)N1
inactive: A549 20.8 µM | SF-539 14.8 µM | UO-31 13.9 µM | SK-MEL-5 13.8 µM | SN12C 10.8 µM | SK-MEL-28 14.2 µM | HT-29 4.65 µM | OVCAR-4 2.43 µM | CAKI-1 12.1 µM | MOLT-4 3.54 µM | HCT-116 9.53 µM | M14 12.4 µM | KM12 2.92 µM | SK-MEL-2 12.1 µM

O=C(/C=C1\Nc2ccccc2C(=O)N1c1ccc(Cl)cc1)c1ccncc1
inactive: A549 > 100 µM | UO-31 > 100 µM | SK-MEL-5 > 100 µM | SN12C > 100 µM | SK-MEL-28 > 100 µM | HT-29 > 100 µM | HOP-92 > 100 µM | OVCAR-4 > 100 µM | CAKI-1 > 100 µM | MOLT-4 > 100 µM | HCT-116 > 100 µM | M14 > 100 µM | KM12 > 100 µM | SK-MEL-2 > 100 µM

COc1ccc(CNc2cnc3cc(N)ccc3n2)cc1
inactive: A549 > 100 µM | SF-539 > 100 µM | UO-31 26.4 µM | SK-MEL-5 > 100 µM | SN12C > 100 µM | SK-MEL-28 > 100 µM | HT-29 > 100 µM | OVCAR-4 > 100 µM | MOLT-4 69 µM | HCT-116 > 100 µM | M14 > 100 µM | KM12 > 100 µM | SK-MEL-2 > 100 µM

O=C1C2C=CC(C2)C(c2ccc(O)cc2)N1O (stereo unspecified)
inactive: A549 > 100 µM | UO-31 > 100 µM | SK-MEL-5 > 100 µM | SN12C > 100 µM | SK-MEL-28 > 100 µM | HT-29 > 100 µM | HOP-92 > 100 µM | OVCAR-4 > 100 µM | CAKI-1 > 100 µM | MOLT-4 > 100 µM | HCT-116 > 100 µM | M14 > 100 µM | KM12 > 100 µM | SK-MEL-2 > 100 µM

c1ccc(C2=NN3CN(N2)c2ccccc2OCCCOc2ccccc23)cc1
inactive: A549 > 100 µM | SF-539 > 100 µM | UO-31 77.4 µM | SK-MEL-5 > 100 µM | SN12C > 100 µM | SK-MEL-28 > 100 µM | HT-29 > 100 µM | OVCAR-4 77.6 µM | MOLT-4 63.8 µM | HCT-116 > 100 µM | M14 > 100 µM | KM12 > 100 µM | SK-MEL-2 > 100 µM

CC1(C)S[C@H](c2ccccc2C(=O)O)N[C@@H]1CC(=O)O
inactive: A549 > 100 µM | SF-539 > 100 µM | SK-MEL-5 > 100 µM | SN12C > 100 µM | SK-MEL-28 > 100 µM | HT-29 > 100 µM | OVCAR-4 > 100 µM | MOLT-4 > 100 µM | HCT-116 > 100 µM | M14 > 100 µM | KM12 > 100 µM

O=C(OCC1CO1)c1cccs1 (stereo unspecified)
inactive: A549 > 100 µM | UO-31 > 100 µM | SK-MEL-5 > 100 µM | SN12C > 100 µM | SK-MEL-28 > 100 µM | HT-29 > 100 µM | HOP-92 65.6 µM | OVCAR-4 > 100 µM | CAKI-1 > 100 µM | MOLT-4 > 100 µM | M14 > 100 µM | KM12 > 100 µM | SK-MEL-2 > 100 µM

Cn1cnc([N+](=O)[O-])c1Sc1nc2ccccc2s1
inactive: A549 10.2 µM | SF-539 12.5 µM | UO-31 9.57 µM | SK-MEL-5 13.7 µM | SN12C 4.33 µM | SK-MEL-28 9.1 µM | HT-29 13.3 µM | HOP-92 2.77 µM | OVCAR-4 3.01 µM | CAKI-1 1.57 µM | MOLT-4 1.89 µM | HCT-116 5.47 µM | M14 15.2 µM | KM12 15.1 µM

O=C(c1ccccc1)C1CCCCN1C(=O)c1ccccc1 (stereo unspecified)
inactive: A549 > 100 µM | SF-539 > 100 µM | UO-31 > 100 µM | SK-MEL-5 > 100 µM | SN12C > 100 µM | SK-MEL-28 > 100 µM | OVCAR-4 > 100 µM | CAKI-1 > 100 µM | MOLT-4 > 100 µM | HCT-116 > 100 µM | M14 > 100 µM | KM12 > 100 µM | SK-MEL-2 > 100 µM

Cc1nc2ccccc2c(=O)n1/N=C(\N=N\c1ccccc1Cl)c1ccccc1
inactive: A549 48.6 µM | SF-539 18.7 µM | UO-31 28 µM | SK-MEL-5 19.4 µM | SK-MEL-28 41.5 µM | HT-29 25.6 µM | HOP-92 36.5 µM | CAKI-1 23.4 µM | MOLT-4 > 10 µM | HCT-116 > 10 µM | M14 18.1 µM

O=[N+]([O-])c1c(/C=N/Nc2ccccc2)oc(-c2ccc3c(c2)OCO3)c1-c1ccc2c(c1)OCO2
inactive: A549 11 µM | SF-539 3.16 µM | SN12C 64.3 µM | SK-MEL-28 23.4 µM | HT-29 23.8 µM | HOP-92 19.8 µM | OVCAR-4 21.5 µM | CAKI-1 8.22 µM | HCT-116 8.47 µM | M14 3 µM | SK-MEL-2 2.49 µM

COC(=O)[C@@]12C3=NO[C@]1(C(=O)OC)C(O[Si](C)(C)C(C)(C)C)[C@H]1OC(C)(C)O[C@H]1[C@@H]2C(OCc1ccccc1)CC3 (stereo partly specified)
inactive: A549 34 µM | SF-539 59.2 µM | UO-31 41.3 µM | SK-MEL-5 35.1 µM | SN12C 89.7 µM | SK-MEL-28 > 100 µM | HT-29 67.3 µM | HOP-92 2.75 µM | OVCAR-4 22.3 µM | MOLT-4 9.66 µM | HCT-116 41.8 µM | M14 26.9 µM | KM12 28.3 µM | SK-MEL-2 28.8 µM

COC(=O)C(C(=O)C(=O)Nc1cccc(C)c1)C1=NC(N)SS1 (stereo unspecified)
inactive: A549 > 100 µM | SF-539 > 100 µM | UO-31 > 100 µM | SK-MEL-5 > 100 µM | SN12C > 100 µM | SK-MEL-28 > 100 µM | HT-29 > 100 µM | OVCAR-4 > 100 µM | CAKI-1 > 100 µM | MOLT-4 > 100 µM | HCT-116 > 100 µM | M14 > 100 µM | KM12 > 100 µM | SK-MEL-2 > 100 µM
